Test results published in patent US12528818B2, “Compositions and methods for inhibition of RAS” (Leidos Biomedical Research, Inc., priority 2021, dated 2026).

System: pERK in NCI-H358 cells
Experiment: Cell-based pERK HTRF assay (pERK inhibition in H358 cells)
Details: Homo sapiens, NCI-H358, 0.5 h, pERK inhibition IC50, NCI-H358 cells, 30 min incubation; read-out: PERK in H358 cell
Protocol: On Day 1, cells (NCI-H358) were seeded into 96-well plates at 4×10^4 cells/well in complete growth media (RPMI, 10% FBS).
The source plate was created with compounds diluted in media at 5-fold the final assay concentration. […] 20 μL was transferred onto the cell plates (final volume in wells was 100 μL). Plates were harvested after 30 min incubation by aspirating media and adding kit-supplied 1× supplemented lysis buffer to all wells (75 μl per well). Plates were then placed on a plate shaker and incubated at 850 rpm for an additional 30 min.
Antibody mixture solution was prepared by diluting aliquoted d2 and Eu Cryptate antibodies 1:20 in kit supplied detection buffer, then mixed the diluted antibodies solutions (1:1 v:v).
Samples were homogenized by pipetting up and down and then transferred (16 μL of cell lysates) from the 96-well cell culture plate to two wells of the HTRF 384-well detection plate containing the antibody solution. Plates were centrifuged (524 g for 1 min) and allowed to incubate between 4 and 24 h at room temperature. Maximum signal is reached after 4 h incubation time and remains stable over a period of 24 hours. Therefore, readings can be made between 4 and 24 h of incubation.

Structure (SMILES) | IC50
C=CC(=O)N1CCC(N(C)c2nc(OCCO)nc3c(F)c(-c4ccc(F)c5sc(N)c(C#N)c45)ccc23)[C@H]1C (stereo partly drawn) [Compound 468] | 100 to 1000 nM
C=CC(=O)N1CC[C@@H](N(C)c2nc(OC[C@@]34CCCN3C[C@H](F)C4)nc3c(F)c(-c4ccc(F)c5sc(N)nc45)c(Cl)cc23)C1 [Compound 195, 1-((3R)-3-((7-(2-amino-7-fluorobenzo[d]thiazol-4-yl)-6-chloro-8-fluoro-2-(((2R,7aS)-2-fluorotetrahydro-1H-pyrrolizin-7a(5H)-yl)methoxy)quinazolin-4-yl)(methyl)amino)pyrrolidin-1-yl)prop-2-en-1-one] | < 100 nM
C=CC(=O)N1CCN(c2nc(OC[C@@]34CCCN3C[C@H](F)C4)nc3c(F)c(-c4ccc(F)c5sc(N)c(C#N)c45)c(C(F)(F)F)cc23)[C@@H](C)C1 [Compound 347] | < 100 nM
C=CC(=O)N1CCC(N(CC)c2nc(OC[C@@H]3CC4(CC4)CN3C)nc3c(F)c(-c4ccc(F)c5sc(N)c(C#N)c45)c(C(F)(F)F)cc23)[C@H]1COC (stereo partly drawn) [Compound 445] | < 100 nM
C=CC(=O)N1CC[C@H](N(C)c2nc(OC[C@@]34CCCN3C[C@H](F)C4)nc3c(F)c(-c4ccc(F)c5sc(N)c(C#N)c45)c(Cl)cc23)[C@@H]1C (atropisomer, axis not shown) [Compound 467] | < 100 nM
C=CC(=O)N1C[C@H](C)N(c2nc(OC[C@]3(C)CCCN3C)nc3c(F)c(-c4ccc(F)c5sc(N)c(C#N)c45)c(C(F)(F)F)cc23)C[C@H]1C [Compound 447, 4-(4-((2S,5R)-4-acryloyl-2,5-dimethylpiperazin-1-yl)-2-(((S)-1,2-dimethylpyrrolidin-2-yl)methoxy)-8-fluoro-6-(trifluoromethyl)quinazolin-7-yl)-2-amino-7-fluorobenzo[b]thiophene-3-carbonitrile] | < 100 nM
C=CC(=O)N1C[C@H](C)N(c2nc(OC[C@]34CCCN3C[C@H](OC)C4)nc3c(F)c(-c4ccc(F)c5sc(N)nc45)c(C(F)(F)F)cc23)C[C@H]1C [Compound 269] | < 100 nM
C=CC(=O)N1CC[C@@H](N(CC)c2nc(OC[C@@]34CCCN3C[C@H](F)C4)nc3c(F)c(-c4ccc(F)c5sc(N)c(C#N)c45)c(C(F)(F)F)cc23)C1 [Compound 348, 4-(4-(((R)-1-acryloylpyrrolidin-3-yl)(ethyl)amino)-8-fluoro-2-(((2R,7aS)-2-fluorotetrahydro-1H-pyrrolizin-7a(5H)-yl)methoxy)-6-(trifluoromethyl)quinazolin-7-yl)-2-amino-7-fluorobenzo[b]thiophene-3-carbonitrile] | < 100 nM
C=CC(=O)N1C[C@@H](F)[C@@H](N(C)c2nc(OC[C@@]34CCCN3C[C@H](F)C4)nc3cc(-c4ccc(F)c5sc(N)c(C#N)c45)c(C#N)cc23)C1 [Compound 372] | < 100 nM
C=CC(=O)N1CC[C@@H](N(C)c2nc(OC[C@@]34CCCN3C[C@H](F)C4)nc3cc(-c4ccc(F)c5sc(N)c(C#N)c45)c(F)cc23)[C@H]1C [Compound 390, 4-(4-((1-acryloyl-2-methylpyrrolidin-3-yl)(methyl)amino)-6-fluoro-2-(((2R,7aS)-2-fluorotetrahydro-1H-pyrrolizin-7a(5H)-yl)methoxy)quinazolin-7-yl)-2-amino-7-fluorobenzo[b]thiophene-3-carbonitrile] | < 100 nM
C=CC(=O)N1C[C@H](C)N(c2nc(OC[C@@]34CCCN3C[C@H](OC)C4)nc3c(F)c(-c4ccc(F)c5sc(N)c(C#N)c45)c(C(F)(F)F)cc23)C[C@H]1C [Compound 341] | < 100 nM
C=CC(=O)N1C[C@H](C)N(c2nc(OC[C@@]34CCCN3C[C@H](F)C4)nc3c(F)c(-c4ccc(F)c5sc(N)c(C#N)c45)c(C(F)(F)F)cc23)C[C@H]1C (single isomer, unassigned) [Compound 313] | < 100 nM
C=CC(=O)N1CCN(c2nc(OC[C@@]34CCCN3C[C@H](F)C4)nc3c(F)c(-c4ccc(F)c5sc(N)c(C#N)c45)c(C(F)(F)F)cc23)CC1 [Compound 345] | < 100 nM
C=CC(=O)N1CCC(N(CC)c2nc(OC[C@@]34CCCN3C[C@H](F)C4)nc3c(F)c(-c4ccc(F)c5sc(N)c(C#N)c45)ccc23)[C@H]1C (stereo partly drawn) [Compound 421] | < 100 nM
C=CC(=O)N1CC[C@@H](N(C)c2nc(OC[C@@]34CCCN3C[C@H](F)C4)nc3c(F)c(-c4ccc(F)c5sc(N)c(C#N)c45)c(Cl)cc23)C1 [Compound 342] | < 100 nM
C=CC(=O)N1CC(Nc2nc(OC[C@@H]3CCCN3C)nc3c(F)c(-c4ccc(F)c5nc(N)sc45)c(Cl)cc23)C1 [Compound 90] | > 1000 nM
C=CC(=O)N1CC[C@@H](N(C)c2nc(OC[C@@]34CCCN3C[C@H](F)C4)nc3cc(-c4ccc(F)c5sc(N)c(C#N)c45)c(C(F)(F)F)cc23)[C@H]1C [Compound 354, 4-(4-(((2R,3R)-1-acryloyl-2-methylpyrrolidin-3-yl)(methyl)amino)-2-(((2R,7aS)-2-fluorotetrahydro-1H-pyrrolizin-7a(5H)-yl)methoxy)-6-(trifluoromethyl)quinazolin-7-yl)-2-amino-7-fluorobenzo[b]thiophene-3-carbonitrile] | < 100 nM
C=CC(=O)N1CCC[C@@H](N(C)c2nc(OC[C@@]34CCCN3C[C@H](F)C4)nc3c(F)c(-c4ccc(F)c5sc(N)nc45)c(Cl)cc23)C1 (atropisomer, axis not shown) [Compound 241] | < 100 nM

Structure (SMILES) | IC50
C=CC(=O)N1CC(N(CCC#N)c2nc(OC[C@@H]3CCCN3C)nc3c(F)c(-c4ccc(F)c5sc(N)nc45)c(Cl)cc23)C1 [Compound 141] | > 1000 nM
C=CC(=O)N1CCC(Nc2nc(OC[C@@H]3CCCN3C)nc3c(F)c(-c4ccc(F)c5sc(N)nc45)c(Cl)cc23)C1 (stereo partly drawn) [Compound 52] | > 1000 nM
C=CC(=O)N1CC[C@@H](N(C)c2nc(OC[C@@]34CCCN3C[C@H](F)C4)nc3c(F)c(-c4ccc(F)c5sc(N)c(C#N)c45)c(C#N)cc23)C1 [Compound 325] | < 100 nM
C=CC(=O)N1C[C@H](C)N(c2nc(OCC34CCCN3CCC4)nc3c(F)c(-c4ccc(F)c5sc(N)nc45)c(C(F)(F)F)cc23)C[C@H]1C [Compound 281] | < 100 nM
C=CC(=O)N1CCN(c2nc(OC[C@]34CCCN3C[C@H](F)C4)nc3c(F)c(-c4ccc(F)c5sc(N)nc45)c(C(F)(F)F)cc23)[C@H](C)C1 [Compound 196] | < 100 nM
C=CC(=O)N1C[C@H](C)N(c2nc(OC[C@@]34CCCN3C[C@H](F)C4)nc3c(F)c(-c4ccc(F)c5sc(N)c(C#N)c45)c(C#N)cc23)C[C@H]1C [Compound 324, 4-((2S,5R)-4-acryloyl-2,5-dimethylpiperazin-1-yl)-7-(2-amino-3-cyano-7-fluorobenzo[b]thiophen-4-yl)-8-fluoro-2-(((2R,7aS)-2-fluorotetrahydro-1H-pyrrolizin-7a(5H)-yl)methoxy)quinazoline-6-carbonitrile] | < 100 nM
C=CC(=O)N1C[C@H](C)N(c2nc(OC[C@@]34CCCN3C[C@H](F)C4)nc3c(F)c(-c4ccc(F)c5sc(N)nc45)c(OC(F)(F)F)cc23)C[C@H]1C [Compound 235, 1-((2R,5S)-4-(7-(2-amino-7-fluorobenzo[d]thiazol-4-yl)-8-fluoro-2-(((2R,7aS)-2-fluorotetrahydro-1H-pyrrolizin-7a(5H)-yl)methoxy)-6-(trifluoromethoxy)quinazolin-4-yl)-2,5-dimethylpiperazin-1-yl)prop-2-en-1-one] | < 100 nM
C=CC(=O)N1CCCC(Nc2nc(OC[C@@H]3CCCN3C)nc3c(F)c(-c4ccc(F)c5sc(N)nc45)c(Cl)cc23)C1 (stereo partly drawn) [Compound 54] | 100 to 1000 nM
C=CC(=O)N1CCC(N(C)c2nc(OC[C@@H]3CCCN3CC)nc3c(F)c(-c4ccc(F)c5sc(N)c(C#N)c45)c(Cl)cc23)[C@H]1C (stereo partly drawn) [Compound 464] | < 100 nM
C=CC(=O)N1CCC(N(C)c2nc(OC[C@@H]3CCCN3C)nc3c(F)c(-c4ccc(F)c5sc(N)c(C#N)c45)c(C(F)(F)F)cc23)[C@H]1C (stereo partly drawn) [Compound 400] | < 100 nM
C=CC(=O)N1CCC(N(C)c2nc(OC[C@]34CCCN3C[C@H](F)C4)nc3c(F)c(-c4ccc(F)c5sc(N)c(C#N)c45)c(C(F)(F)F)cc23)[C@H]1C (stereo partly drawn) [Compound 477] | < 100 nM
C=CC(=O)N1CC[C@@H](N(C)c2nc(OC[C@@]34CCCN3C[C@H](F)C4)nc3cc(-c4ccc(F)c5sc(N)c(C#N)c45)c(C(F)(F)F)cc23)C1 [Compound 306] | < 100 nM
C=CC(=O)N1CC(N(C)c2nc(OC[C@@]34CCCN3C[C@H](F)C4)nc3c(F)c(-c4ccc(F)c5sc(N)nc45)c(Cl)cc23)C1 [Compound 247] | < 100 nM
C=CC(=O)N1C[C@H](C)N(c2nc(OC[C@@H]3CCCN3C)nc3c(F)c(-c4ccc(F)c5sc(N)c(C#N)c45)c(C(F)(F)F)cc23)C[C@H]1C (single isomer, unassigned) [Compound 458] | < 100 nM
C=CC(=O)N1C[C@H](C)[C@@H](N(C)c2nc(OC[C@@]34CCCN3C[C@H](F)C4)nc3c(F)c(-c4ccc(F)c5sc(N)nc45)c(C(F)(F)F)cc23)C1 [Compound 296] | < 100 nM
C=CC(=O)N1CCC(N(C)c2ncnc3c(F)c(-c4ccc(F)c5sc(N)c(C#N)c45)ccc23)[C@H]1C (stereo partly drawn) [Compound 462] | > 1000 nM
C=CC(=O)N1CC[C@@H](N(C)c2nc(OC[C@]34CCCN3C[C@H](OC)C4)nc3c(F)c(-c4ccc(F)c5sc(N)nc45)c(C(F)(F)F)cc23)C1 (atropisomer, axis not shown) [Compound 277] | < 100 nM

Same assay, conditions: pERK inhibition IC50, NCI-H358 cells, 30 min incubation; read-out: PERK in H358 cell

Structure (SMILES) | IC50
C=CC(=O)N1C[C@H](C)N(c2nc(OC[C@@]34CCCN3C[C@H](OC)C4)nc3c(F)c(-c4ccc(F)c5sc(N)nc45)c(C(F)(F)F)cc23)C[C@H]1C [Compound 297] | < 100 nM
